Experimental data published in the supplement of paper PMC10307832.

Legend:
Assay in all cases: relative viability (nuclei count vs DMSO), 5 days (fraction); higher = more cells survive
[1] = compound: COc1cc2nc(N3CCCN(C)CC3)nc(NC3CCN(Cc4ccccc4)CC3)c2cc1OC + CC(=O)Nc1cccc(-n2c(=O)n(C3CC3)c(=O)c3c(Nc4ccc(I)cc4F)n(C)c(=O)c(C)c32)c1 [Trametinib] (partner 0.02 µM)
How it was run: (§1)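 Medians of duplicate plates are given as relative viability. That measure is the nuclei count in treated wells divided by the count in vehicle wells. Counts were taken on 4× images of lung cancer cell lines in 1536-well plates, 5 days after pin-tool dosing the day after seeding with one drug alone or a fixed anchor-drug dose plus five library-drug doses (not always all listed) in √10 steps.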

[2] = compound: COc1cc2nc(N3CCCN(C)CC3)nc(NC3CCN(Cc4ccccc4)CC3)c2cc1OC + C[C@]1(O)C[C@@H](c2nc(-c3ccc4ccc(-c5ccccc5)nc4c3)c3c(N)nccn32)C1 [Linsitinib] (partner 1 µM)
How it was run: as §1

[3] = compound: COc1cc2nc(N3CCCN(C)CC3)nc(NC3CCN(Cc4ccccc4)CC3)c2cc1OC + CC(=O)c1c(C)c2cnc(Nc3ccc(N4CCNCC4)cn3)nc2n(C2CCCC2)c1=O [Palbociclib] (partner 0.5 µM)
How it was run: as §1

[4] = compound: COc1cc2nc(N3CCCN(C)CC3)nc(NC3CCN(Cc4ccccc4)CC3)c2cc1OC + Cc1nc(Nc2ncc(C(=O)Nc3c(C)cccc3Cl)s2)cc(N2CCN(CCO)CC2)n1 [Dasatinib] (partner 0.075 µM)
How it was run: as §1

[5] = compound: COc1cc2nc(N3CCCN(C)CC3)nc(NC3CCN(Cc4ccccc4)CC3)c2cc1OC + CC1(C)CCC(c2ccc(Cl)cc2)=C(CN2CCN(c3ccc(C(=O)NS(=O)(=O)c4ccc(N[C@H](CCN5CCOCC5)CSc5ccccc5)c(S(=O)(=O)C(F)(F)F)c4)cc3)CC2)C1 [Navitoclax] (partner 0.5 µM)
How it was run: as §1

Row | Cell Line | relative viability ([1]; first compound 0.2 µM) | relative viability ([1]; first compound 0.6325 µM) | relative viability ([1]; first compound 2 µM) | relative viability ([1]; first compound 6.325 µM) | relative viability ([2]; first compound 0.2 µM) | relative viability ([2]; first compound 0.6325 µM) | relative viability ([2]; first compound 2 µM) | relative viability ([2]; first compound 6.325 µM) | relative viability ([3]; first compound 0.2 µM) | relative viability ([3]; first compound 0.6325 µM) | relative viability ([3]; first compound 2 µM) | relative viability ([3]; first compound 6.325 µM) | relative viability ([4]; first compound 0.2 µM) | relative viability ([4]; first compound 0.6325 µM) | relative viability ([4]; first compound 2 µM) | relative viability ([4]; first compound 6.325 µM) | relative viability ([5]; first compound 0.2 µM) | relative viability ([5]; first compound 0.6325 µM) | relative viability ([5]; first compound 2 µM) | relative viability ([5]; first compound 6.325 µM)
1 | HCC-15 | 0.44 | 0.386 | 0.373 | 0.379 | 0.895 | 0.903 | 0.95 | 0.734 | 0.741 | 0.802 | 0.83 | 0.69 | 0.632 | 0.706 | 0.654 | 0.44 | 0.725 | 0.749 | 0.765 | 0.487
2 | HCC-44 | 1.04 | 1.13 | 1.1 | 1.08 | 0.688 | 0.549 | 0.786 | 0.695 | 0.956 | 0.951 | 0.995 | 0.956 |  |  |  |  | 0.908 | 0.968 | 1.02 | 0.945
3 | HCC-78 | 0.734 | 0.695 | 0.723 | 0.685 | 0.427 | 0.416 | 0.482 | 0.348 | 0.491 | 0.448 | 0.508 | 0.463 | 0.486 | 0.557 | 0.362 | 0.421 | 0.844 | 0.779 | 0.717 | 0.602
4 | HCC-366 | 0.335 | 0.401 | 0.358 | 0.239 | 0.68 | 0.642 | 0.694 | 0.586 | 0.373 | 0.404 | 0.396 | 0.409 | 0.697 | 0.599 | 0.504 | 0.571 | 1.04 | 1.12 | 1.21 | 1.05
5 | IA-LM |  |  |  |  | 0.724 | 0.5 | 0.661 | 0.458 |  |  |  |  |  |  |  |  | 0.761 | 0.689 | 1.01 | 0.64
6 | LCLC-103H | 0.682 | 0.745 | 0.743 | 0.671 | 1.1 | 1.13 | 1.28 | 1.04 | 0.479 | 0.47 | 0.452 | 0.444 | 0.394 | 0.344 | 0.532 | 0.479 |  |  |  | 
7 | NCI-H358 | 0.132 | 0.16 | 0.121 | 0.126 | 0.837 | 0.66 | 0.741 | 0.52 | 0.147 | 0.118 | 0.141 | 0.139 | 0.163 | 0.205 | 0.146 | 0.171 |  |  |  | 
8 | NCI-H522 | 0.754 | 0.728 | 0.749 | 0.817 |  |  |  |  | 0.716 | 1.18 | 0.859 | 0.915 | 0.963 | 1.15 | 1.02 | 0.92 |  |  |  | 
9 | NCI-H596 | 0.748 | 0.765 | 0.822 | 0.655 | 1.12 | 1.02 | 1.17 | 0.992 |  |  |  |  | 0.659 | 0.652 | 0.638 | 0.654 | 1.03 | 0.851 | 0.949 | 0.821
10 | NCI-H650 | 1.01 | 1.06 | 1 | 0.978 | 0.866 | 0.77 | 0.943 | 0.534 | 0.394 | 0.307 | 0.31 | 0.295 | 0.48 | 0.472 | 0.441 | 0.38 |  |  |  | 
11 | NCI-H661 | 0.612 | 0.563 | 0.648 | 0.586 | 0.553 | 0.56 | 0.779 | 0.634 | 0.417 | 0.429 | 0.426 | 0.387 | 0.957 | 0.955 | 0.966 | 0.83 |  |  |  | 
12 | NCI-H1299 |  |  |  |  | 1.01 | 0.939 | 1.1 | 0.97 |  |  |  |  |  |  |  |  | 1.07 | 1.04 | 1.09 | 1.02
13 | NCI-H1563 |  |  |  |  | 1.29 | 1.19 | 1.19 | 1.16 |  |  |  |  | 0.469 | 0.467 | 0.441 | 0.421 |  |  |  | 
14 | NCI-H1648 |  | 0.511 |  | 0.532 |  |  |  |  |  | 0.293 |  | 0.272 |  |  |  |  |  |  |  | 
15 | NCI-H1650 | 0.576 | 0.601 | 0.499 | 0.511 |  |  |  |  | 0.243 | 0.448 | 0.328 | 0.287 | 0.28 | 0.367 | 0.327 | 0.233 | 1.25 | 1.07 | 1.48 | 1.07
16 | NCI-H1703 |  |  |  |  | 0.593 | 0.398 | 0.533 | 0.69 |  |  |  |  |  |  |  |  | 1.25 | 0.92 | 1.11 | 0.41
17 | NCI-H2170 | 0.989 | 0.856 | 0.959 | 0.948 |  |  |  |  | 0.383 | 0.406 | 0.37 | 0.352 | 0.658 | 0.594 | 0.638 | 0.583 | 0.707 | 0.577 | 0.494 | 0.582
18 | NCI-H2342 | 0.916 | 0.963 | 0.818 | 0.803 |  |  |  |  | 0.521 | 0.58 | 0.549 | 0.527 | 0.34 | 0.295 | 0.311 | 0.312 |  |  |  | 
19 | SW 900 | 0.661 | 0.753 | 0.584 | 0.688 |  |  |  |  | 0.538 | 0.442 | 0.566 | 0.46 | 0.411 | 0.578 | 0.654 | 0.498 |  |  |  | 
